From patent publication US20050187208A1 (priority 2004, published 2005)

Assays:
[1] = system: cannabinoid receptors; assay: Mouse tetrad model, antagonistic effect against Win 55212-2; assay type: in vivo; parameters: unit not given here; settings: 5 mg/kg i.v. prior to Win 55212-2 1.25 mg/kg i.v.; male NMRI mice
Excerpt: (§1) Substances with affinity for cannabinoid receptors are known to produce a wide range of pharmacological effects. It is also known that intravenous administration of a substance with affinity for cannabinoid receptors in mice produces analgesia, hypothermia, sedation and catalepsy. Individually, none of these effects can be considered as proof that a tested substance has affinity for cannabinoid-receptors, since all of these effects are common for various classes of centrally active agents. However, substances, which show all of these effects, i.e. substances that are active in this so-called tetrad model are considered to have affinity for the cannabinoid receptors. It has further been shown that cannabinoid receptor antagonists are higly effective in blocking the effects of a cannabinoid agonist in the mouse tetrad model.
(§2) The tetrad model is described, for example, in the publication of A. C. Howlett et al, International Union of Pharmacology XXVII. Classification of Cannabinoid Receptors, Pharmacol Rev 54, 161-202, 2002 and David R. Compton et al., “In-vivo Characterization of a Specific Cannabinoid Receptor Antagonist (SR141716A): Inhibition of Tetrahydrocannbinol-induced Responses and Apparent Agonist Activity”, J. Pharmacol. Exp. Ther. 277, 2, 586-594, 1996. The corresponding parts of the description are hereby incorporated by reference.
(§3) Male NMRI mice with a weight of 20-30 g (Harlan, Barcelona, Spain) are used in all of the following experiments.
(§4) Before testing in the behavioral procedures given below, mice are acclimatized to the experimental setting. Pre-Treatment control values are determined for analgesia hot plate latency (in seconds), rectal temperature, sedation and catalepsy.
(§5) In order to determine the agonistic activty of the substance to be tested, the mice are injected intravenously with the substance to be tested or the vehicle alone. 15 minutes after injection, latency in hot plate analgesia is measured. Rectal temperature, sedation and catalepsy are measured 20 minutes after injection.
In order to determine the antagonistic activity the identical procedure is used as for the determination of the agonistic effects, but with the difference that the substance to be evaluated for its antagonistic activity is injectected 5 minutes before the intravenous injection of 1.25 mg/kg Win-55,212 a known cannabinoid-receptor agonist.
(§6) The hot plate analgesia is determined according to the method described in Woolfe D. et al. “The evaluation of analgesic action of pethidine hydrochloride (Demerol)”, J. Pharmacol. Exp. Ther. 80, 300-307, 1944. The respective description is hereby incorporated by reference and forms part of the present disclosure.
(§7) The mice are placed on a hot plate (Harvard Analgesimeter) at 55±0.5° C. until they show a painful sensation by licking their paws or jumping and the time for these sensations to occur is recorded. This reading is considered the basal value (B). The maximum time limit the mice are allowed to remain on the hot plate in absence of any painful response is 40 seconds in order to prevent skin damage. This period is called the cut-off time (PC).
(§8) Fifteen minuts after the administration of the substance to be tested, the mice are again placed on the hot plate and the afore described procedure is repeated. This period is called the post-treatment reading (PT).
(§9) The degree of analgesia is calculated from the formula: % MPE of Analgesia=(PT−B)/(PC−B)×100 • MPE Maximum possible effect. Determination of Sedation and Ataxia
(§10) Sedation and ataxia is determined according to the method described in Desmet L. K. C. et al. “Anticonvulsive properties of.Cinarizine and Flunarizine in Rats and Mice”, Arzneim. -Forsch. (Frug Res) 25, 9, 1975. The respective description is hereby incorporated by reference and forms part of the present disclosure.
The chosen scoring system is • 0: no ataxia; • 1: doubful; • 2: obvious calmness and quiet; • 3 pronounced ataxia; prior to as well as after treatment. […]

[2] = target: T1, transfected human CB2 receptor (Homo sapiens, UniProt P34972); assay: In-vitro determination of affinity to CB2 receptor, radioligand [^3H]-CP55940; assay type: binding; settings: 10^−6 M
T1 construct: purchased Receptor Biology, Inc
Description: (§11) I. In-vitro Determination of Affinity to CB1/CB2-Rezeptors
(§12) The in-vitro determination of the affinity of the inventive substituted azetidine compounds to CB1/CB2-Receptors is carried out as described in the publication of Ruth A. Ross, Heather C. Brockie et al., “Agonist-inverse agonist characterization at CB1 and CB2 cannabinoid receptors of L-759633, L759656 and AM630”, British Journal of Pharmacology, 126, 665-672, (1999). The respective parts of the descriptions are hereby incorporated by reference and form part of the present disclosure. The transfected human CB1 and CB2 receptor are obtained from Receptor Biology, Inc. The radioligand used for both receptors is [^3H]-CP55940.
(§13) The affinity of the inventive substituted azetidine compounds to CB1/CB2 receptors is determined as described above.

[3] = system: cannabinoid receptors; assay: Mouse tetrad model, agonistic effect (hot plate, hypothermia, catalepsy, sedation); assay type: in vivo; parameters: key to Agonistic effect A: Hot-Plate test: % MPE = (PT−B)/(PC−B)×100; key to Agonistic effect D: Sedation: % sedation = mean score (0-3)/3×100; Agonistic effect B: Hypothermia: unit not given here; settings: 5 mg/kg i.v., male NMRI mice; for Agonistic effect A: Hot-Plate test: 15 minutes after injection; for Agonistic effect B: Hypothermia / Agonistic effect C: Catalepsy / Agonistic effect D: Sedation: 20 minutes after injection
Excerpt: as §1, §2, §3, §4, §5, §6, §7, §8, §9, §10
The chosen scoring system is • 0: no ataxia; • 1: doubful; • 2: obvious calmness and quiet; • 3 pronounced ataxia; prior to as well as after treatment.
The percentage of sedation is determined according to the formula: % of sedation=arithmetic mean/3×100 Hypothermia: […]

[4] = target: T2, transfected human CB1 receptor (Homo sapiens, UniProt P21554); assay: In-vitro determination of affinity to CB1 receptor, radioligand [^3H]-CP55940; assay type: binding; settings: for inhibition at 1 µM: read-out: CB1 Receptor % Inhibition 10^−6 M
T2 construct: purchased Receptor Biology, Inc
Description: as §11, §12, §13

T2 sequence (P21554 whole entry): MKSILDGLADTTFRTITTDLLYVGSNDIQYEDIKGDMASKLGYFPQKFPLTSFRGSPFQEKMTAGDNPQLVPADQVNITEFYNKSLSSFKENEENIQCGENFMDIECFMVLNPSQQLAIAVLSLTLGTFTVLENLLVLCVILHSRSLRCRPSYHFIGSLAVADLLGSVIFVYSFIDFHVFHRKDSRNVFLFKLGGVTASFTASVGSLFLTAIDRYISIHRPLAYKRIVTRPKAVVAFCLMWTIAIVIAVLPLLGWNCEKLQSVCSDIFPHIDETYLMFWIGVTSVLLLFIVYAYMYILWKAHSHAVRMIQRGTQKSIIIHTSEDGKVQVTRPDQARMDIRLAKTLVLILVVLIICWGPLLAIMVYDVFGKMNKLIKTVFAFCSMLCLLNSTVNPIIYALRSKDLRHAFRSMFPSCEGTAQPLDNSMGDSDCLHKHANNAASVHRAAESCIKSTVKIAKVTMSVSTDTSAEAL
T1 sequence (P34972 whole entry): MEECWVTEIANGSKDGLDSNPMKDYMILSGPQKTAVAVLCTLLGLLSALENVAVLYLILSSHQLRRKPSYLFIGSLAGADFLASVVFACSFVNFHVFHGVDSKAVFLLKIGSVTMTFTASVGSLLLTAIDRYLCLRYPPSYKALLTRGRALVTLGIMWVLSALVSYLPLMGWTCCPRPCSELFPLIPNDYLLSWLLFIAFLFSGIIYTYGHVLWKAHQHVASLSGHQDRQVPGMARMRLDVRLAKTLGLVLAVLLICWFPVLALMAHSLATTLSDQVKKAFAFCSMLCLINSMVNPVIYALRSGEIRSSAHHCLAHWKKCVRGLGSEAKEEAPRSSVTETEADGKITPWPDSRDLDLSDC

C[C@H]1[C@H](NS(=O)(=O)c2ccc(F)cc2)CN1C(c1ccc(Cl)cc1)c1ccc(Cl)cc1 [Example 5, (2S, 3R)-N-{1-[Bis-(4-chlorophenyl)methyl]-2-methylazetidin-3-yl}-4-fluoro-benzene sulfonamide]
Antagonistic Effect A: Hot-Plate test [1]: 77 | Antagonistic Effect B: Hypothermia [1]: 100 | Antagonistic Effect C: Catalepsy [1]: 71 | Antagonistic Effect D: Sedation [1]: 57 | inhibition at 1 µM [2]: 4.6% | Agonistic effect A: Hot-Plate test [3]: 2 | Agonistic effect B: Hypothermia [3]: 0 | Agonistic effect C: Catalepsy [3]: 0 | Agonistic effect D: Sedation [3]: 0 | melting point: 154 to 157 °C | Ki ([4]; radioligand [^3H]-CP55940): 264 nM | inhibition at 1 µM [4]: 59%

C[C@H]1[C@H](NS(=O)(=O)c2cccs2)CN1C(c1ccc(Cl)cc1)c1ccc(Cl)cc1 [Example 6, Thiophene-2-sulfonic acid {(2S,3R)-1-[bis-(4-chloro-phenyl)-methyl]-2-methyl-azetidin-3-yl}-amide]
Antagonistic Effect A: Hot-Plate test [1]: 32 | Antagonistic Effect B: Hypothermia [1]: 32 | Antagonistic Effect C: Catalepsy [1]: 51 | Antagonistic Effect D: Sedation [1]: 46 | inhibition at 1 µM [2]: 13.5% | Agonistic effect A: Hot-Plate test [3]: 0 | Agonistic effect B: Hypothermia [3]: 0 | Agonistic effect C: Catalepsy [3]: 0 | Agonistic effect D: Sedation [3]: 0 | melting point: 72 to 76 °C | inhibition at 1 µM [4]: 66%
